How the values were obtained:
CTPS1 = target: T1, CTPS1 (Homo sapiens, UniProt P17812); settings: see e.g. WO2020083975 (CTPS-IA), WO2020245664 (CTPS-IB); cited from earlier work
T1 sequence (P17812 1-591): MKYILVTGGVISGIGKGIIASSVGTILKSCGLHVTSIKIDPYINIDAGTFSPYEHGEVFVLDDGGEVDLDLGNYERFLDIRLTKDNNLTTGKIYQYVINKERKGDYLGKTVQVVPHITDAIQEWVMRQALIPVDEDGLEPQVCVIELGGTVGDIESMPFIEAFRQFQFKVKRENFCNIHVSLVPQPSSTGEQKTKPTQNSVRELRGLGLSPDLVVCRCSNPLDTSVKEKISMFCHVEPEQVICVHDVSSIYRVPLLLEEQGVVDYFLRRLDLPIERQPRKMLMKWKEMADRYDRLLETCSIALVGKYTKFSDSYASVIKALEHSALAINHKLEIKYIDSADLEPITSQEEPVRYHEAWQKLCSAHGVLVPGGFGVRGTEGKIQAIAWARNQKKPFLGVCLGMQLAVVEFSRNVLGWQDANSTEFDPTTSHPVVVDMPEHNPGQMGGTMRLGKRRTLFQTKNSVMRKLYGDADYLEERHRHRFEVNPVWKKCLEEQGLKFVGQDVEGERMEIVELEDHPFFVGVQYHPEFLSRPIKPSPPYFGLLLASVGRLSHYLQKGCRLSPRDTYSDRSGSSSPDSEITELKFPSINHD

human cancer cell lines = experiment: Human cancer cell line viability with CTPS-IA (CellTiter-Glo, 72 hours), IC50 correlated with CTPS1/CTPS2 RNA expression; type: cell-based; settings: all three cell line sets (19, 60, 103 lines); P-value>0.05 in all cases
Source text: CTPS2 expression levels were also found to correlate with IC50 values for CTPS-IA. […] A nonlinear regression model was used to calculate half maximal inhibitory concentration (IC50). CTPS1 and CTPS2 expression levels, measured by RNA abundance, were either generated by RNA sequencing or retrieved from the publicly available Cancer Cell Line Encyclopedia. In a set of 19 human cancer cell lines derived from haematological cancers, lower CTPS2 expression was associated with increased sensitivity to CTPS-IA (Pearson correlation r=0.50, P-value=0.0007). In a set of 60 human cancer cell lines covering common cancer types, lower CTPS2 expression was associated with increased sensitivity to CTPS-IA (Pearson correlation r=0.24, P-value=<0.0001). In an independent set of 103 human cancer cell lines covering common cancer types, lower CTPS2 expression was associated with increased sensitivity to CTPS-IA (Pearson correlation r=0.14, P-value=<0.0001).

Row | Structure (SMILES) | CTPS1 inhibition and selectivity (in words) (CTPS1) | Association of the level of CTPS1 expression with sensitivity to CTPS-IA (human cancer cell lines)
1 | CCOc1cncc(-c2ccc(NC(=O)C3(c4ccnc(NS(=O)(=O)CC)n4)CCOCC3)nc2)n1 [CTPS-IB, N-(5-(6-ethoxypyrazin-2-yl)pyridin-2-yl)-4-(2-(ethylsulfonamido)pyrimidin-4-yl)tetrahydro-2H-pyran-4-carboxamide] | potent and selective inhibitor of CTPS1 | 
2 | CCOc1cncc(-c2ccc(NC(=O)C3(c4ccnc(NS(=O)(=O)C5CC5)n4)CCOCC3)nc2)n1 [CTPS-IA, 4-(2-(cyclopropanesulfonamido)pyrimidin-4-yl)-N-(5-(6-ethoxypyrazin-2-yl)pyridin-2-yl)tetrahydro-2H-pyran-4-carboxamide] | potent and selective inhibitor of CTPS1 | not associated with sensitivity to CTPS-IA
